Source: publication PMC12059162 (Scientific Reports, 2025)

How the values were obtained:
NHDF cells = assay: alamarBlue cell viability, healthy cells; settings: Homo sapiens, NHDF, 72 h, read-out: IC50 values (μM) 72 hours
PANC-1 cells = assay: CyQUANT LDH direct cytotoxicity assay; assay type: cell-based, human; settings: PANC-1, 25 µM, 72 h
Procedure: To assess the direct cytotoxicity, the CyQUANT™ LDH Cytotoxicity Assay (Invitrogen Corporation, New York, NY, USA) was used, which is a colourimetric assay. It is based on the detection of lactate dehydrogenase (LDH) activity. When there is damage to the plasma membrane, LDH is released into the cell culture medium, where it can be detected. First, 5 × 10^3 cells/well/100 µL concentration of cells were seeded in a 96-well plate, and after 24 h of incubation, the cells were treated with the molecules at concentrations of 0.5, 10 and 25 µM. After 72 h of treatment, 50 µl of the media from each sample was pipetted to a new 96-well plate. Then, the necessary steps were carried out according to the manufacturer’s instructions. Absorbance was measured for each well using a plate reader (Multiskan MS, Labsystems, Helsinki, Finland) at 492 and 680 nm. The % cytotoxicity was then calculated according to the manufacturer’s instructions. Three parallel samples were analysed in each treatment group.

XIAP = assay: Human Apoptosis Array in PANC-1 cells; settings: PANC-1, 0.5 µM, 72 h
cytochrome-c = assay: Human Apoptosis Array in PANC-1 cells; settings: PANC-1, 0.5 µM, 72 h
cleaved caspase-3 = assay: Human Apoptosis Array in PANC-1 cells; settings: PANC-1, 0.5 µM, 72 h
DR4 = assay: qPCR apoptotic gene expression in PANC-1 cells; settings: PANC-1, 25 µM
DR5 = assay: Human Apoptosis Array in PANC-1 cells; settings: PANC-1, 0.5 µM, 72 h
caspase-3/7 = assay: CellEvent Caspase-3/7 activity imaging in PANC-1 cells; settings: PANC-1, 0.5 µM, 72 h, normalised to DMSO control (n = 1)
survivin = assay: Human Apoptosis Array in PANC-1 cells; settings: PANC-1, 0.5 µM, 72 h

Compound | IC50 (NHDF cells) [µM] | cytotoxicity at 25 µM (PANC-1 cells; Homo sapiens, DMSO control 5.3%) [%] | Direct cytotoxicity, fold compared to the DMSO control (PANC-1 cells) [fold] | XIAP protein level (XIAP) | cytochrome-c protein level (cytochrome-c) | cleaved caspase-3 protein level (cleaved caspase-3) | DR4 mRNA expression (DR4; 3 h) | DR4 mRNA expression (DR4; 24 h, normalised to DMSO control) [fold] | DR5 protein level (DR5) | Number of caspase-3/7 active cells, increase (caspase-3/7) [fold] | survivin protein level (survivin)
O=C1C2=C(CCN(Cc3ccccc3)C2)N2CCN=C2N1Cc1ccc(F)cc1 [TBP-134] | 1.55 | 6.9 | 1.3 | decrease |  |  |  |  |  |  | 
O=C1C2=C(CCN(Cc3ccccc3)C2)N2CCN=C2N1Cc1cccc(F)c1 [TBP-135] |  |  |  |  | significantly decreased | significantly increased | significantly upregulated | 3.7 | significantly increased | 7.8 | did not exert detectable change
